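Grown in 96-well plates, cells were treated for 48 hours with each compound at five concentrations. Insufficient inhibition: endpoint recorded as highest concentration tested. GI50: concentration for 50% inhibition of growth. TGI denotes the concentration required for complete inhibition of growth.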

Consider 15 compounds from PubChem BioAssay (NCI).

Holding throughout (assay): NCI-60 cell line screen, 48 h
Assay [1] concerns 786-0 renal.
Assay [2] deals with COLO 205 colon.
Assay [3] deals with U251 CNS.
The subject of assay [4] is NCI-H460 lung.
In assay [5] the test system is HS 578T breast.
Assay [6] relates to A549 NSCLC.
For assay [7], the system named is SK-MEL-28 melanoma.
In assay [8] the test system is HOP-62 NSCLC.
The test system of assay [9] is M14 melanoma.
Assay [10] concerns SNB-75 CNS.
The subject of assay [11] is NCI-H23 lung.
Assay [12] deals with NCI/ADR-RES ovarian.
Assay [13] relates to HL-60(TB) leukemia.
Assay [14] has as its system OVCAR-8 ovarian.
Assay [15] concerns A498 renal.

Take `O=C(CCNC(=O)OCc1ccccc1)OCCCNC(=O)OCc1ccccc1`: the TGI in [1], in [2], in [3], in [4], in assay [5] and in assay [6] was over 100 µM in each case. For the same compound, the TGI in [7], in [8], in assay [9], in [10], in assay [11] and in assay [12] was over 100 µM in each case. Further, the TGI in assay [13] and in assay [14] was over 100 µM throughout.

As for `c1csc(-c2cc(-c3ccsc3)c(-c3cccs3)s2)c1`, the TGI in [1] was over 100 µM; in assay [2], 82.5 µM; in [3], over 100 µM; in [15], over 100 µM; in [4] it was over 100 µM; in assay [5], over 100 µM. The TGI in assay [6], in [7], in [8], in assay [9], in assay [10] and in assay [11] was over 100 µM throughout. For the same compound, the TGI in [12] and in [14] was over 100 µM in each case.

Turning to `COc1ccc(-n2c(C)nc3ccc(N=Cc4ccccc4)cc3c2=O)cc1`, the TGI in assay [1], in [2], in assay [3], in [15], in [4] and in assay [5] was over 100 µM each time. Further, the TGI in assay [7], in assay [8], in assay [10], in assay [11], in [12] and in assay [13] was over 100 µM throughout. Also, the TGI in assay [14] was over 100 µM.

Regarding `CCCCCCCCCCCCCCCCCCNc1ccn(C2OC(COP(=O)(O)OCCCCCCCCCCCCCCCC)C(O)C2O)c(=O)n1` (centres undefined), the TGI in [1], in assay [2], in assay [3], in assay [15], in assay [5] and in assay [6] was over 100 µM in each case. Further, the TGI in assay [7], in assay [8], in assay [9], in [10], in assay [11] and in assay [12] was over 100 µM in each case. Moreover, the TGI in assay [13] and in [14] was over 100 µM in each case.

Regarding `CCOC(=O)c1c(N2CCOCC2)[nH]c(=O)c(C(c2ccc(N(C)C)cc2)c2c(O)c(C(=O)OCC)c(N3CCOCC3)[nH]c2=O)c1O`, the TGI in [1], in assay [2], in assay [3], in assay [15], in assay [4] and in assay [5] was over 100 µM throughout. The TGI in assay [6], in assay [7], in [8], in assay [9], in [10] and in assay [11] was over 100 µM in each case. Further, the TGI in assay [12] and in assay [14] was over 100 µM in each case.

For `CCCCCCCCCCCCCC/C(=C/OCC[N+](C)(C)C)OC(C)=O` (tested in a mixture with another compound), the TGI came to 2.34 µM in assay [1]; 5.08 µM in [2]; 2.71 µM in [3]; 6.99 µM in assay [15]; 5.26 µM in assay [5]; 6.87 µM in assay [6]. Further, the TGI stood at 20.4 µM in [7]; 5.8 µM in assay [8]; 7.12 µM in assay [9]; 7.3 µM in assay [10]; 7.65 µM in assay [11]; 44.2 µM in [12]. For the same compound, the results for the TGI in assay [13] and in assay [14] were 3.27 µM and 4.15 µM, respectively.

As to `CCOC(=O)c1c(SCC#N)n(-c2ccccc2)c(=S)n(-c2ccccc2)c1=O`, the TGI in assay [1], in assay [2], in assay [3], in assay [4], in assay [5] and in assay [6] was over 100 µM throughout. In addition, the TGI in [7] was over 100 µM; in assay [8] it was over 100 µM; in assay [9], over 100 µM; in assay [10], 90.3 µM; in [11], over 100 µM; in assay [12], over 100 µM. The TGI in assay [13] and in assay [14] was over 100 µM in each case.

`Cn1c2nc(=Nc3ccc(Cl)cc3)n3ccc4ccccc4c3c2c(=O)n1-c1ccccc1`: the TGI in assay [1], in assay [2], in [3], in [15], in [4] and in assay [5] was over 100 µM throughout. Further, the TGI in assay [7], in assay [8], in assay [10], in assay [11], in [12] and in assay [13] was over 100 µM each time. The compound also registered a TGI in assay [14] of over 100 µM.

Regarding `O=c1oc2ccccc2c(O)c1C(c1ccc([N+](=O)[O-])cc1)c1c(O)c2ccccc2oc1=O`, the TGI in assay [1], in [2], in [3], in assay [15], in [4] and in assay [5] was over 100 µM in each case. The TGI in assay [7], in [8], in [10], in assay [11], in [12] and in [13] was over 100 µM each time. In assay [14], the TGI is over 100 µM.

Take `COc1cccc2c1[C@H](OC)[C@]13O[C@@]1(C2=O)[C@H](O)[C@H](C)[C@@](O)(C(=O)[C@@H]1O[C@H]1C)[C@@H]3O`: the TGI was 2.52 µM in [1]; 0.415 µM in [2]; 3.1 µM in assay [3]; 0.585 µM in [15]; 0.617 µM in [4]; 0.618 µM in assay [5]. Also, the TGI in assay [6] was 0.729 µM; in assay [7], 0.654 µM; in [8], 1.59 µM; in [9], 0.395 µM; in assay [10] it was 0.544 µM; in assay [11], 0.541 µM. Besides, the TGI in [12] was over 100 µM; in assay [14] it was 0.61 µM. Besides, the GI50 in assay [4] is 0.211 µM; in assay [9], 0.197 µM.

As to `COC(=O)c1ccc(/C=N/c2cc(C)nn2-c2ccccc2)cc1`, the TGI is over 100 µM in assay [1]; 43 µM in assay [2]; over 100 µM in assay [3]; 37.3 µM in [4]; over 100 µM in assay [5]; over 100 µM in assay [6]. In addition, the TGI was over 100 µM in assay [7]; over 100 µM in assay [8]; over 100 µM in [9]; 96.8 µM in assay [10]; over 100 µM in assay [11]; over 100 µM in [12]. Further, the TGI in assay [13] and in assay [14] was over 100 µM throughout.

In the case of `Cc1ccccc1N=Nc1ccc(N=Nc2c(O)ccc3cc(S(=O)(=O)O)cc(S(=O)(=O)O)c23)c(C)c1`, the TGI in [1], in assay [2], in assay [3], in assay [4], in [5] and in assay [6] was over 100 µM throughout. For the same compound, the TGI in assay [7], in assay [8], in assay [9], in assay [10], in [11] and in assay [12] was over 100 µM throughout. The TGI in assay [13] and in assay [14] was over 100 µM each time.

`COc1cc(CSc2ccc(O)cc2)cc(O)c1O`: the TGI is over 100 µM in assay [1]; 52.6 µM in assay [2]; over 100 µM in assay [3]; over 100 µM in assay [15]; over 100 µM in assay [5]; over 100 µM in assay [6]. Also, the TGI in assay [7] was over 100 µM; in [8], over 100 µM; in assay [9], 43.7 µM; in assay [10], over 100 µM; in assay [11], over 100 µM; in assay [12], 71.3 µM. Besides, the TGI is over 100 µM in assay [13] and 58.2 µM in assay [14].

For `Oc1ccc2ccccc2c1N=Nc1ccc(N=Nc2ccccc2)cc1`, the TGI in assay [1], in assay [2], in assay [3], in assay [15], in assay [5] and in assay [6] was over 100 µM in each case. In addition, the TGI in assay [7], in assay [8], in assay [9], in assay [10], in assay [11] and in assay [12] was over 100 µM each time. The TGI in assay [13] was 12 µM; in assay [14], over 100 µM.

Take `COC(=O)c1ccc(NCc2cc(O)c3ccccc3c2O)cc1`: the TGI stood at 46.5 µM in assay [1]; 25.4 µM in [2]; 40.1 µM in assay [3]; 36.7 µM in [15]; 24.5 µM in [4]; 98.2 µM in assay [5]. For the same compound, the TGI is 23.4 µM in assay [6]; 18.3 µM in assay [7]; 32.5 µM in assay [8]; 56.6 µM in assay [10]; 30.3 µM in assay [11]; 94.3 µM in assay [12]. Further, the TGI in [13] was over 28.5 µM; in assay [14] it was 93.4 µM.
